According to EP0603160A2, “Compositions for in-situ active compound assembly” (SCRIPPS CLINIC AND RESEARCH FOUNDATION, priority 1986, dated 1988):
Read-outs that look alike come from different tables or passages of the source.

Tests used:
[1] = test system: Ox blood erythrocytes; test: Erythrocyte killing with or without 1% serum, light scattering; type: cell-based; settings: for mortality at 1.4 µM / mortality at 2 µM / mortality at 2.8 µM / mortality at 4 µM / mortality at 5.6 µM / mortality at 8 µM / mortality at 11.2 µM / mortality at 16 µM / mortality at 22.4 µM / mortality at 32 µM / mortality at 1 µM: Bos taurus, Erythrocyte, 1 h; for mortality at 1.4 µM: DIOG 1.4 µM; for mortality at 2.8 µM: DIOG 2.8 µM; for mortality at 4 µM: DIOG 4 µM; for mortality at 5.6 µM: DIOG 5.6 µM; for mortality at 11.2 µM: DIOG 11.2 µM; for mortality at 22.4 µM: DIOG 22.4 µM; for mortality at 32 µM: DIOG 32 µM; for mortality at 1 µM: DIOG 1 µM
Description: Ox blood erythrocytes were incubated for one hour in PBS at pH 6.6 in the presence or absence of 1% serum at 37°C. […] However, at 4-16 µM DIOG, the percentage of cells killed increased from 4.3 to 60.9. On the other hand, in the absence of serum, 7.2.% cells were killed even without the addition of DIOG, and a steady increase in killing occurred as the DIOG concentration increased, reaching 100% of cells killed at 8 µM.
The AOG concentration was maintained at a high level (448 µM) and the decanal concentration varied from 0-16 µM corresponding the previous DIOG concentration range. In this protocol, similar results were obtained for cells incubated in the absence of serum, but in the presence of 1% serum the curve was slightly displaced so that the cells appeared more protected as shown in Table 4.

[2] = test system: human erythrocytes; test: Erythrocyte lysis (light scattering, hemoglobin release, cell counts); type: cell-based
Description: The putative product shown in Reaction Scheme 1 is evidently cytotoxic, since a suspension of human erythrocytes in a solution containing both CHD and DAPG in phosphate buffered saline is 95% lysed or aggregated within 1-14 hours under physiological conditions (the precise time depending on the concentrations) whereas erythrocytes are stable for at least 24 hours in plain PBS, and also in solutions containing either DAPG or CHD alone. In addition, when erythrocytes are incubated with mixtures of CHD and DAPG, a substantial induction period is observed during which no lysis or aggregation occurs, due to the time lag in formation of the cytotoxic material. Whether lysis or aggregation results depends on relative concentration; excess CHD results in lysis, equimolar concentrations in aggregation. The cytotoxicity may be due to the formation of the polycation, analogous to the known antitumor activity of poly-(L-lysine); Arnold, L. J. Proc. Natl Acad Sci (supra).
For erythrocytes blood was collected and stored with KEDTA at 4°C and erythrocytes prepared within 48 hours by centrifuging three times in phosphate-buffered saline (PBS, pH 7.4). Suspensions containing 3 x 10⁷ cells/ml were prepared in PBS containing 1% EtOH, but no […] cations, and incubated at 37°C with the compounds or mixtures to be tested.
On the other hand, while a mixture of 28 µM AOG and 28 µM decanal (reagent grade, Aldrich Chemical Co.) results in less than 10% lysis within the same 20 minute time frame, as the time of incubation increases, lysis increases also, as indicated by hemoglobin release measured by (1) light absorption of the supernatant at 400 nm. (2) decrease of light scattering by the cells at 700 nm, and (3) direct cell counts using a microscope. […] Suspensions of 3.5 x 10⁷ cells/ml prepared as above in PBS (1% EtOH, no divalent cations, pH 7.4) were incubated at 37°C, and cell lysis was followed by observing the decrease in absorbance at 700 nm. For 0% lysis, A₇₀₀ is 1.0; 0.2 for 100% lysis).
The curves were calculated using a nonlinear least squares fitting algorithm (Arc, H, et al, Statistical Methods (1970) Harper & Row, pp. 100-111) and based on a modified Hill equation (Cantor, C.R. et al, supra) wherein percent hemolysis is calculated as 100% divided by (1+(K/C))^α [formula] . In this equation, K is the median effect concentration, C is the concentration of DIOG (or of decanal and AOG), and α is the Hill constant.

[3] = pH 6.6, similar experiment (Table 3), read-out: % Cells Killed (0% Serum)
[4] = pH 6.6, similar experiment (Table 3), read-out: % Cells Killed (1% Serum)
[5] = one hour, PBS pH 6.6, 37°C (second Table 2), read-out: % cells killed (0% serum)
[6] = one hour, PBS pH 6.6, 37°C (second Table 2), read-out: % cells killed (1% serum)

CCCCCCCCCC=NNC(=N)NCCCCCCCC [DIOG, N-1-decylidenimino-N'-octylguanidine] showed a mortality at 1.4 µM [1, 3] of 1.3%, a mortality at 1.4 µM [1, 4] of 0% and a mortality at 2 µM ([1]; pH 6.6, DIOG 2 µM, similar experiment (Table 3), read-out: % Cells Killed (0% Serum)) of 17.9%. For the same compound, the mortality at 2 µM ([1]; pH 6.6, DIOG 2 µM, similar experiment (Table 3), read-out: % Cells Killed (1% Serum)) was 5.1%, the mortality at 2.8 µM [1, 3] was 17.9% and the mortality at 2.8 µM [1, 4] was 9%. It also gave a mortality at 4 µM [1, 3] of 48.7%, a mortality at 4 µM [1, 4] of 11.5% and a mortality at 5.6 µM [1, 3] of 91%. It also gave a mortality at 5.6 µM [1, 4] of 16.7%, a mortality at 8 µM ([1]; pH 6.6, DIOG 8 µM, similar experiment (Table 3), read-out: % Cells Killed (0% Serum)) of 100% and a mortality at 8 µM ([1]; pH 6.6, DIOG 8 µM, similar experiment (Table 3), read-out: % Cells Killed (1% Serum)) of 35.9%. The mortality at 11.2 µM [1, 3] was 100%, the mortality at 11.2 µM [1, 4] was 37.2% and the mortality at 16 µM ([1]; pH 6.6, DIOG 16 µM, similar experiment (Table 3), read-out: % Cells Killed (0% Serum)) was 100%. It also gave a mortality at 16 µM ([1]; pH 6.6, DIOG 16 µM, similar experiment (Table 3), read-out: % Cells Killed (1% Serum)) of 51.3%, a mortality at 22.4 µM [1, 3] of 100% and a mortality at 22.4 µM [1, 4] of 100%. For the same compound, the mortality at 32 µM [1, 3] was 100%, the mortality at 32 µM [1, 4] was 98.7% and the mortality at 1 µM [1, 5] was 10.1%. The mortality at 1 µM [1, 6] was 0%, the mortality at 2 µM ([1]; DIOG 2 µM, one hour, PBS pH 6.6, 37°C (second Table 2), read-out: % cells killed (0% serum)) was 29% and the mortality at 2 µM ([1]; DIOG 2 µM, one hour, PBS pH 6.6, 37°C (second Table 2), read-out: % cells killed (1% serum)) was 0%. For the same compound, the mortality at 4 µM [1, 5] was 47.8%, the mortality at 4 µM [1, 6] was 4.3% and the mortality at 8 µM ([1]; DIOG 8 µM, one hour, PBS pH 6.6, 37°C (second Table 2), read-out: % cells killed (0% serum)) was 100%. For the same compound, the mortality at 8 µM ([1]; DIOG 8 µM, one hour, PBS pH 6.6, 37°C (second Table 2), read-out: % cells killed (1% serum)) was 29%, the mortality at 16 µM ([1]; DIOG 16µM, one hour, PBS pH 6.6, 37°C (second Table 2), read-out: % cells killed (0% serum)) was 100% and the mortality at 16 µM ([1]; DIOG 16µM, one hour, PBS pH 6.6, 37°C (second Table 2), read-out: % cells killed (1% serum)) was 60.9%. The “% cells killed (1% serum)” value ([1]; DIOG 2 µM, one hour, PBS pH 6.6, 37°C (second Table 2)) was “no cell killing”, the “% cells killed (0% serum)” value ([1]; DIOG 8 µM, one hour, PBS pH 6.6, 37°C (second Table 2), 60 min) was 100% and the lysis ([2]; 14 µM DIOG previously prepared, in 20 minutes, 37°C) was “complete lysis”. The EC50 ([2]; Erythrocyte, hemoglobin release from human erythrocytes, absorption at 400 nm, modified Hill equation fit, Figure 4, read-out: median effect concentration) was 6.2 µM.
